Numbered stars: 1 amine (or outer) side, 2 acyl side, 3 side chain; on linkers, the order of the positions; unused ones are H or OH. Bridge positions count the residues as written; N and C are the ends. Square brackets hold non-standard residues; d marks the D form. Peptide text beside a SMILES is read from it. CO = O=C([*:1])[*:2]; Nlys = NCCCCNCC(=O)O
Target: T1, Abl (Homo sapiens, UniProt P00519)
T1 construct: purchased Carna 08-001
Assay: PhosphoSens CSox-based kinase assay, Abl
Assay type: biochemical
Conditions: 1 mM, but not 0.1 mM; Figure 7
Procedure: Kinase activity was measured using the PhosphoSenstechnology (AssayQuant Technologies Inc., Marlborough, MA) as detailed in the Supporting Information. […]
Visabron c (4-4) safety by in vitro evaluation using PhosphoSens - CSox based kinase assays:
A powerful method was used to measure the activity of recombinant protein kinases using a homogeneous and continuous (kinetic) format, where the level of chelation-enhanced fluorescence (CHEF) that is directly proportional to the amount of phosphorylated, real-time sensors consisting of sulfonamido-oxine (Sox) chromophore, linked to a peptide or protein substrates of selective kinases 6. […]
Kinase activity measurements: Kinase activity was measured continuously using the PhosphoSens® technology (AssayQuant Technologies Inc., Marlborough, MA) according to the manufacturers’ recommendations. This one-step homogeneous assay format uses chelation -enhanced fluorescence via optimized substrate sensors containing the unnatural fluorogenic amino -acid Sox. […]
Final reaction conditions : Protein kinase activity was determined in 54 mM HEPES, pH 7.5, 1 mM ATP, 1.2 mM DTT, 0.012% Brij-35, 0.52 mM EGTA, 10 mM MgCl2, 1% glycerol, 0.2mg/ml BSA, and 15 μM Sox -based sensor. […]

T1 sequence (P00519 whole entry): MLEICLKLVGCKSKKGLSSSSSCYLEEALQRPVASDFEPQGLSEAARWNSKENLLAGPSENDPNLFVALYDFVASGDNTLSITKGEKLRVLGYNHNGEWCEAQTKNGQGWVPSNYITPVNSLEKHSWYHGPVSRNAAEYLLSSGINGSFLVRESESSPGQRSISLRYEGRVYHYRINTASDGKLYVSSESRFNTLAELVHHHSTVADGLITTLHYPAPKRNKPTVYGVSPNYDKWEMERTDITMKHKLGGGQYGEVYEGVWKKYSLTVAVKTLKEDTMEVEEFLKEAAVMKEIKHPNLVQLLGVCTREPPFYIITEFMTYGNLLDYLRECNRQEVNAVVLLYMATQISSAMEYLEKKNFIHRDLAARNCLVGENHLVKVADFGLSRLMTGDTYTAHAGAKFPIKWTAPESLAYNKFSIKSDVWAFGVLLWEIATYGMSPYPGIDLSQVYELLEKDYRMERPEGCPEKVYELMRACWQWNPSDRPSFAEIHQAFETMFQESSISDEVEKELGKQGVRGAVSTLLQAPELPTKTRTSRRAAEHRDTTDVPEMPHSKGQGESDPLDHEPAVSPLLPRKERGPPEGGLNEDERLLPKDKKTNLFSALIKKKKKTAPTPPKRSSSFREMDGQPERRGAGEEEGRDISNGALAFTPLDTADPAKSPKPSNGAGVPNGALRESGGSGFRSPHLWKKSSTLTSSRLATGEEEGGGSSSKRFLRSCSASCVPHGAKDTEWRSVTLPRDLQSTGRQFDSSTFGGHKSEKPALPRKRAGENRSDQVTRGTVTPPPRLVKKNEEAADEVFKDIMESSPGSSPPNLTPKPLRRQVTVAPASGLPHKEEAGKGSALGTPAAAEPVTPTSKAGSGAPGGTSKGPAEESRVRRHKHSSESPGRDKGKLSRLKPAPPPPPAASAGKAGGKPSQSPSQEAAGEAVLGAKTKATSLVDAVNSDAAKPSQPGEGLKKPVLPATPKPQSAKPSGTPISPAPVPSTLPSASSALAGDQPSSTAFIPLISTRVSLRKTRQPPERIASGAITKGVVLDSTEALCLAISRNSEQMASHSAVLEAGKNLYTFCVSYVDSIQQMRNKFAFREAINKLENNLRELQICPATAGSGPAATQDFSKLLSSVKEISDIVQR

## CSCC[C@@H]1NC(=O)[C@H]([C@@H](C)O)NC(=O)CN(C(=O)[C@@H](N)CCCCN)CCCCNC(=O)NCCCCN(CC(=O)N[C@@H](CC(C)C)C(N)=O)C(=O)[C@H](CC(=O)O)NC(=O)[C@H](CC(C)C)NC1=O [visabron c (4–4)] (H-K[Nlys]TMLD[Nlys]L-NH2; linker 2-7 via CO)
  inhibition at 1000 µM: 25 to 40%

— paper PMC8717366, “Synthesis and Pharmacological Characterization of Visabron, a Backbone Cyclic Peptide Dual Antagonist of α4β1 (VLA-4)/α9β1 Integrin for Therapy of Multiple Sclerosis” (JACS Au, 2021)
